The values that follow come from US20190119645A1, “GENERATION OF ADULT-LIKE HEART MUSCLE FROM HUMAN PLURIPOTENT STEM CELLS” (The Johns Hopkins University, priority 2015, published 2019).

Experiment [1] relates to hiPSC-derived neurons. Description: Patch-clamp recording of spontaneous synaptic events in hiPSC-derived neurons. In kind it is cell-based, human. The settings on record: 10 μM; hiPSC-derived neurons in slices and in cultures; applied with Bic. The method, then:
(§1) Transverse brain slices of 350 μm thickness were prepared at 8 weeks after differentiated hiPSC cells injection using a vibratome (Leica VT1200S). Slices were incubated in artificial cerebrospinal fluid (ACSF) containing (in mM): NaCl 125, KCl 2.5, MgSO4 1, NaH2PO4 1.25, NaHCO3 26, CaCl2 2, and D-glucose 10. Slices were maintained in ACSF and continuously bubbled with 95% O2 and 5% CO2, first at 34° C. for 30 min, and then at room temperature. A single slice was transferred into a submerged recording chamber and perfused constantly with carbogen-equilibrated ACSF at a rate of 2 ml/min Injected human neurons expressing RFP were visualized under a 40× water immersion objective by fluorescence and DIC optics (Carl Zeiss, Germany). […] Resting membrane potential (RMP) was recorded in current clamp mode at 0 pA immediately after establishing whole-cell configuration. Series resistance (Rseries) and input resistance (Rin) were calculated from a 5 mV pulse and monitored throughout the experiment. […]
(§2) For voltageclamp experiments, the membrane potential was typically held at −70 mV. […] Data were acquired by PatchMaster software (HEKA Elektronik, Lambrech, Germany) Na^+ and K^+ currents and action potentials were analyzed using Clampfit 10.5 software (Molecular devices, Palo Alto, Calif., USA). Spontaneous synaptic events were analyzed using MiniAnalysis software (Synaptosoft, Decatur, Ga., USA). […]
For orientation: In patch-clamp work, channel activity is measured electrically.

The test system of experiment [2] is functional sodium and potassium channels in hiPSC-neurons. The experiment in a line: Voltage-clamp recording of Na+ and K+ currents in hiPSC-derived neurons. Type of experiment: cell-based, human. To be noted: depolarizing voltage steps; hiPSC-neurons after 8 weeks of maturation. The method, then:
as §1, §2

SMILES strings stand for the structures.

`N#Cc1cc2c(cc1[N+](=O)[O-])=NC(=O)C(=O)N=2` [CNQX, 6-Cyano-7-nitroquinoxaline-2,3-dione]: the spontaneous synaptic events result in experiment [1] was “blocked”.

For the molecule `CC[N+](CC)(CC)CC` [TEA], the “voltage-dependent inward and outward currents, sensitivity” value in experiment [2] was “selectively sensitive”.
